Laboratory results published in patent US20030153611A1, “1,3-Diarylprop-2-en-1-ones, compositions containing them and use thereof” (AVENTIS PHARMA S.A., priority 2001, published 2003).
Where a name gives a salt, the structure may show the parent alone.

Assays:
Tubulin = biological target: T1, Tubulin (Sus scrofa, UniProt P02550+P02554); assay: Assessment of the inhibition of tubulin polymerization (turbidimetry); format: biochemical, pig; conditions: tubulin 10 μM, turbidity at 350 nm, 37° C.
T1 construct: Tubulin is purified from pig brains according to the published methods; from tissue; host or cells: pig brain
T1 sequence (P02550 whole entry): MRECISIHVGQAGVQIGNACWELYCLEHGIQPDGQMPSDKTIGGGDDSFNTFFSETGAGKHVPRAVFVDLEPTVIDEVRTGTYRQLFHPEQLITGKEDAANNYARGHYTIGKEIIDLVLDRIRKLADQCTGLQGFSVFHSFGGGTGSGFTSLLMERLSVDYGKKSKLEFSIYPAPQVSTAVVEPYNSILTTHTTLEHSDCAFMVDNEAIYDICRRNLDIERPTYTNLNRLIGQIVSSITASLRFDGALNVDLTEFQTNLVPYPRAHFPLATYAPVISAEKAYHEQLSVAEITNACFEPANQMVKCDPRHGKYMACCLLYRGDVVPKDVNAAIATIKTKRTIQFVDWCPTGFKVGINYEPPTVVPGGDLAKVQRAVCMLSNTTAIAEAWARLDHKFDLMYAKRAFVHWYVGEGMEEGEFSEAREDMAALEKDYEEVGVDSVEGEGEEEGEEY
T1 sequence (P02554 whole entry): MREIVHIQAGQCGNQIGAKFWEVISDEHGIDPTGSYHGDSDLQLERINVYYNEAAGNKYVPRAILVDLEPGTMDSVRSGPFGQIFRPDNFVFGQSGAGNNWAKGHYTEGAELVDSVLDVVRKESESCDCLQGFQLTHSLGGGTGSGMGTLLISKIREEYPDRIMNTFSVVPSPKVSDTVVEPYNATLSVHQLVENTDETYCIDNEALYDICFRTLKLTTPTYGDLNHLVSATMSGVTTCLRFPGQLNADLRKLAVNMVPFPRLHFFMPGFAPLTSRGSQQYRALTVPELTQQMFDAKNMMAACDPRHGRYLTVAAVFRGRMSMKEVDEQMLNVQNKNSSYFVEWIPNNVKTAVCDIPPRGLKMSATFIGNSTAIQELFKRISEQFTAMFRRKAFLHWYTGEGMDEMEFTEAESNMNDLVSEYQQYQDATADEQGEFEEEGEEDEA
Method: Tubulin is purified from pig brains according to the published methods (Shelanski et al., 1973, Proc. Natl, Acad. Sci. USA, 70, 765-768. Weingarten et al., 1975, Proc. Natl, Acad. Sci. USA, 72, 1858-1862). Briefly, the brains are ground and centrifuged in an extraction buffer. The tubulin, contained in the extract supernatant, is subjected to two successive cycles of polymerization at 37° C. and depolymerization at 4° C., before being separated from the MAPs (Microtubule Associated Proteins) by chromatography on a phosphocellulose P11 column (Whatman). The tubulin thus isolated is more than 95% pure. It is stored in a buffer known as RB/2 30% glycerol, the composition of which is MES-NaOH [2-(N-morpholino)ethanesulfonic acid] 50 mM, pH 6.8; MgCl2 0.25 mM; EGTA 0.5 mM; 30% glycerol (v/v), GTP (guanosine 5′-triphosphate) 0.2 mM.
The polymerization of the tubulin into microtubules is monitored by turbidimetry as follows; the tubulin is adjusted to a concentration of 10 μM (1 mg/ml) in the RB/2 30% glycerol buffer, to which is added 1 mM GTP and 6 mM MgCl2. The polymerization is initiated by increasing the temperature from 6° C. to 37° C. in a cuvette with a 1 cm optical pathlength, placed in a Uvikon 931 spectrophotometer (Kontron) equipped with a thermostatically-regulated cuvette holder. The increase in the turbidity of the solution is monitored at 350 nm.
The products are dissolved at 10 mM in DMSO and added at variable concentrations (0.5 to 10 μM) to the tubulin solution before polymerization. The IC50 value is defined as the concentration of product which inhibits 50% of the rate of polymerization. A product whose IC50 value is less than or equal to 3 μM is considered as very active.

HDMEC = assay: Inhibition of cell proliferation, HDMEC; format: cell-based; conditions: Homo sapiens
HeLa cells = assay: Inhibition of proliferation of HeLa cells ([14C]-thymidine incorporation); format: cell-based; conditions: Homo sapiens, incubation for 48 hours, read-out: Inhibition of cell proliferation IC50 HeLa
Method: The proliferation of HeLa cells is assessed by measuring the incorporation of [^14C]-thymidine in the following way. The HeLa cells (epithelial tumor cells of human origin) are cultured in a DMEM medium (Gibco) which contains 10% fetal calf serum and antibiotics (1% penicillin, 1% streptomycin). To carry out the proliferation test, the cells are inoculated into 96-well cytostar microplates (Amersham), at a rate of 5 000 cells per well. [^14C]-thymidine (0.1 μCi/well) and the products to be assessed are then added. Variable concentrations of products up to 10 μM are used; the DMSO (solvent used to dissolve the products) should not exceed 0.5% in the medium. After incubation for 48 hours at 37° C., the radioactivity incorporated into the cells is measured by counting the plate in a TRI-LUX counter (Wallac). The IC50 value is defined as the concentration of product which reduces the radioactivity by 50% relative to an untreated control. A product whose IC50 value is less than 1 μM is considered as cytotoxic.

[1] = system: C51 murine adenocarcinoma; assay: Assessment of the tumor necrosis in vivo; conditions: intravenous injection, 24 hours after treatment, female BALB/c mice
From the text: Mice are bred by IFFA-CREDO (Domaine des Oncins, 69210 L'Arbresle, France) from a race obtained by Jackson Laboratories, Bar Harbor, Me., USA, or by Charles River France (76410 St Aubin les Elbeuf, France) from a race obtained by Charles River, USA. The mice initially weigh more than 18 g at the start of the test. They have free access to food (UAR reference 113, Villemoisson, 91160 Epinay sur Orge, France) and water.
The tumors used are currently transplanted in our laboratories. All these tumors are at the Frederick Cancer Research Facility (Frederick, Md., USA) in the frozen tumor deposit of the National Cancer Institute (NCl) or at the American Type Culture Collection (ATCC, Rockville, Md., USA).
The tumor transplantation techniques, the chemotherapy and the data analysis are presented in detail (Corbett et al. 1982a; Corbett et al., 1982b).
To summarize, the animals required for an experiment are assembled and implanted bilaterally on day 0 (zero).
The growth of the solid tumors develops freely up to the desired size. The mice are then treated by intravenous injection of a test compound in solution.
The sampling of tumors is usually (but not necessarily) carried out 24 hours after the treatment.
The mice are killed by […]. The implanted tumors, along with the skin covering them and the neighboring tissues, are collected and stored in 10% formaldehyde (v/v) (Carlo Erba, Val de Reuil, France).
The samples are then treated, sectioned, stained with hematoxylin, eosin and saffron yellow, and are then examined […]. The tumor necrosis (necrosis±degeneration) is assessed microscopically using a scale of magnitude from 0 to 5:
The values assigned to the tumor necrosis 24 hours after administration of the test compound correspond solely to a necrosis dependent on the product which may be differentiated with certainty from any existing necrosis arising from the experiment.
The necrosis due to the experiment was assessed on an untreated control.
The tumor model is a C51 murine adenocarcinoma. This colon tumor is a grade III mucous colon […]. It is maintained by serial subcutaneous passages every 18 days in female BALB/c mice. The experiments were carried out on female BALB/c mice.

IC50 (Tubulin) [µM]	IC50 (HeLa cells) [µM]	Compound	IC50 (HDMEC) [µM]	C51 colon tumor necrosis in vivo (grade) ([1]; 25 mg/kg)	C51 colon tumor necrosis in vivo (grade) ([1]; 12.5 mg/kg)
0.7	0.005 to 0.01	COc1cc(C(=O)/C(C)=C/c2ccc3c(ccn3C)c2)cc(OC)c1OC [Example 5, E-2-Methyl-3-(1-methyl-1-H-indol-5-yl)-1-(3,4,5-trimethoxyphenyl)propenone]	0.03	Grade 5 at 25 (5=large, >75%)	–
10	0.1	COc1ccc(/C=C(\C)C(=O)c2cc(OC)c(OC)c(OC)c2)cc1NC(=O)[C@@H](N)CO [Example 13, (S)-2-Amino-3-hydroxypropanoic acid {2-methoxy-5-[2-methyl-3-oxo-3-(3,4,5-trimethoxyphenyl)propenyl]phenyl}amide hydrochloride]	0.03	–	Grade 5 at 12.5 (5=large, >75%)
